Tests used:
[1] = test system: primary mouse respiratory epithelial cells (ALI culture); assay: Bead movement in ALI culture of primary mouse respiratory epithelial cells; format: cell-based; conditions: 500 μM ITA, Oxgr1+/+ vs Oxgr1–/–
Experimental: . When they reached full confluence, the cells were differentiated by exposure to air and cultured in a serum-free medium for 20 days. ALI culturing of primary human bronchial epithelium was performed following the manufacturer’s manual ([…] Technologies). Briefly, cells were maintained in PneumaCult-Ex Plus medium on a Transwell insert. Medium on the lateral side was switched to PneumaCult-ALI medium. The apical side of the Transwell membrane was then carefully washed with prewarmed Dulbecco’s PBS (DPBS). Cells were differentiated by exposure to air for 3 weeks. The medium was changed every 2 days.
For the measurement of bead movement in ALI culture, the apical side of the ALI culture inserts was washed with PBS 5 times to fully remove mucus. The inserts were transferred to HBSS buffer supplemented with 30 mM HEPES and the indicated ligand, and 20 μL bath buffer containing red fluorescent beads was added to the apical side. After 15 minutes of equilibration, bead movement was monitored with the BioTek Cytation 5 cell imaging system.

[2] = test system: human OXGR1 orthosteric site mutants; assay: Aequorin assay in HEK293 cells expressing mutant human OXGR1; format: cell-based; conditions: effect of mutation on ligand-stimulated calcium response
Experimental: Thirty-six hours after transfection, cells were maintained in serum-free medium for 12 hours and then loaded with 5 μM coelenterazine for 3 hours. Cells were trypsinized and resuspended at a density of 5 × 10^5 cells/mL in HBSS supplemented with 10 mM HEPES and 0.5% BSA. Cell suspensions of 100 μL were aliquoted into 96-well plates.

C=C(CC(=O)O)C(=O)O [ITA, itaconate]
movement of beads [1]: could accelerate the movement of beads in an Oxgr1-dependent manner | calcium response, mutants C106A, R110A, H258A, R261A, I265A [2]: completely abolished | calcium response, mutants H114A, Y118F, I121A, I285A, R288A [2]: dramatically impaired

Source: paper PMC10014103, “The immunometabolite itaconate stimulates OXGR1 to promote mucociliary clearance during the pulmonary innate immune response” (The Journal of Clinical Investigation, 2023)
